The values below come from patent US20260297070A1, “CYCLIC [COMPOUND LEFT OUT] WRN INHIBITORS” (Nimbus Wadjet, Inc., priority 2023, published 2026).

T1 sequence (Q14191 with tags, fused parts or gaps L1074F limits assumed): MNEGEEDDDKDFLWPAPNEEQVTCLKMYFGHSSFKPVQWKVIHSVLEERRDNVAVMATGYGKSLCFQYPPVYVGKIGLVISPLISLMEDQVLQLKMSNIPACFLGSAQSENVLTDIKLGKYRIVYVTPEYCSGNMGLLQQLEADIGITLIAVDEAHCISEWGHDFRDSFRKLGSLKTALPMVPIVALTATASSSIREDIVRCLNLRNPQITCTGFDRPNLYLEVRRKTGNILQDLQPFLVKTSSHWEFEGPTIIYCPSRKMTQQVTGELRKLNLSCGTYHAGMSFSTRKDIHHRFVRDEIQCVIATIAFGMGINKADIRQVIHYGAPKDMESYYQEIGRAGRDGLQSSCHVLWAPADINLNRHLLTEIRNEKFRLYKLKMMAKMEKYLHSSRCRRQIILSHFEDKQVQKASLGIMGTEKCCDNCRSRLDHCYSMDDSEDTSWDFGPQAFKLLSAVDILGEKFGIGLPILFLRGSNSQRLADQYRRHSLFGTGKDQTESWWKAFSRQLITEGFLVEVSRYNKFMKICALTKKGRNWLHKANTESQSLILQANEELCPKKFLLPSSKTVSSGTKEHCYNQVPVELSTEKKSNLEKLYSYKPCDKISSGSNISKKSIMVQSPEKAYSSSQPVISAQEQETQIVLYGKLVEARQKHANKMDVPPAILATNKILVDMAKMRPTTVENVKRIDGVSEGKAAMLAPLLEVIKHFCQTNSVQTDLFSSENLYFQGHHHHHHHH

The experiment concerns the target T1, human Werner helicase (WRN-BV08, Uniprot Q14191, amino acids 517-1235 with L1074F point mutation) (Homo sapiens, UniProt Q14191, L1074F).
T1 construct: Uniprot Q14191, amino acids 517-1235 with L1074F point mutation; TEV-cleavable 8×His (C, cleaved yes); made in house; host or cells: Sf9 insect cells (baculovirus)
The experiment is described as follows: WRN (BV08) ADP-Glo Assay. It counts as biochemical. The following applies: 0.15 nM WRN, 5 μM ATP, 0.1 nM DNA duplex, 15 min preincubation, 60 min at 25° C., pH 7.5, 1% DMSO; read-out: ADP-Glo_hWRN_IC50. In short, it runs like this:
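WRN 0.15 nM + cpd, 15 min 25 °C; add 5 μM ATP / 0.1 nM annealed DNA duplex; 60 min 25 °C; ADP-Glo stop, RLU. Buffer 20 mM Bicine pH 7.5, 1 mM MgCl2, 10 mM KCl, 1 mM TCEP. IC50, 4-parameter fit.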
In general terms: In ADP-Glo the light output rises with the ADP produced.
In the case of `COc1cc(CN(C(=O)Cc2ccc(-c3ccc(F)cc3)cc2F)C2C=CS(=O)(=O)C2)ccn1` (centres unmarked) [I-87, 2-{3,4′-difluoro-[1,1′-biphenyl]-4-yl}-N-(1,1-dioxo-2,3-dihydro-1lambda6-thiophen-3-yl)-N-[(2-methoxypyridin-4-yl)methyl]acetamide], the IC50 is 0.5 to 5 µM.

Take `O=C(Cc1ccc(-c2ccc(F)cc2)cc1)N(Cc1nc(C2CC2)cs1)C1C=CS(=O)(=O)C1` (centres unmarked) [I-88, N-[(4-cyclopropyl-1,3-thiazol-2-yl)methyl]-N-(1,1-dioxo-2,3-dihydro-1lambda6-thiophen-3-yl)-2-{4′-fluoro-[1,1′-biphenyl]-4-yl}acetamide]: the IC50 was in the range of 0.5 to 5 µM. With `CN(C)c1cc(CN(C(=O)Cc2ccc(S(F)(F)(F)(F)F)cc2)C2C=CS(=O)(=O)C2)ccn1` (centres unmarked) [I-89, N-{[2-(dimethylamino)pyridin-4-yl]methyl}-N-(1,1-dioxo-2,3-dihydro-1lambda6-thiophen-3-yl)-2-[4-(pentafluoro-lambda6-sulfanyl)phenyl]acetamide] the figure was 0.5 to 5 µM; with `Cc1cccn1-c1ccc(CC(=O)N(Cc2ccnc(C3(O)CC3)c2)C2C=CS(=O)(=O)C2)c(F)c1` (centres unmarked) [I-90, N-(1,1-dioxo-2,3-dihydro-1lambda6-thiophen-3-yl)-2-[2-fluoro-4-(2-methyl-1H-pyrrol-1-yl)phenyl]-N-{[2-(1-hydroxycyclopropyl)pyridin-4-yl]methyl}acetamide], 0.5 to 5 µM. With `COc1cc(CN(C(=O)Cc2ccc(-c3cccc(F)c3)cc2F)C2C=CS(=O)(=O)C2)ccn1` (centres unmarked) [I-91, 2-{3,3′-difluoro-[1,1′-biphenyl]-4-yl}-N-(1,1-dioxo-2,3-dihydro-1lambda6-thiophen-3-yl)-N-[(2-methoxypyridin-4-yl)methyl]acetamide] the figure was 0.5 to 5 µM. With `COc1cc(CN(C(=O)C(OC)c2ccc(S(F)(F)(F)(F)F)cc2)C2C=CS(=O)(=O)C2)ccn1` (centres unmarked) [I-92, N-(1,1-dioxo-2,3-dihydro-1lambda6-thiophen-3-yl)-2-methoxy-N-[(2-methoxypyridin-4-yl)methyl]-2-[4-(pentafluoro-lambda6-sulfanyl)phenyl]acetamide] the figure was 0.5 to 5 µM; with `COc1cc(CN(C(=O)C2Cc3cc(-n4cccc4)ccc32)C2C=CS(=O)(=O)C2)ccn1` (centres unmarked) [I-93, N-(1,1-dioxo-2,3-dihydro-1lambda6-thiophen-3-yl)-N-[(2-methoxypyridin-4-yl)methyl]-3-(1H-pyrrol-1-yl)bicyclo[4.2.0]octa-1,3,5-triene-7-carboxamide], 0.5 to 5 µM. On to `COc1cc(CN(C(=O)Cn2cc(-c3ccccc3)cn2)C2C=CS(=O)(=O)C2)ccn1` (centres unmarked) [I-94, N-(1,1-dioxo-2,3-dihydro-1lambda6-thiophen-3-yl)-N-[(2-methoxypyridin-4-yl)methyl]-2-(4-phenyl-1H-pyrazol-1-yl)acetamide], for which the IC50 was in the range of 0.5 to 5 µM. With `COc1cc(CN(C(=O)Cc2ccc(-n3cccc3)cc2F)C2C=CS(=O)(=O)C2)ccn1` (centres unmarked) [I-95, N-(1,1-dioxo-2,3-dihydro-1lambda6-thiophen-3-yl)-2-[2-fluoro-4-(1H-pyrrol-1-yl)phenyl]-N-[(2-methoxypyridin-4-yl)methyl]acetamide] the figure was 0.5 to 5 µM; with `Cc1cccn1-c1ccc(CC(=O)N(Cc2ccnc(N(C)C)c2)C2C=CS(=O)(=O)C2)c(F)c1` (centres unmarked) [I-96, N-{[2-(dimethylamino)pyridin-4-yl]methyl}-N-(1,1-dioxo-2,3-dihydro-1lambda6-thiophen-3-yl)-2-[2-fluoro-4-(2-methyl-1H-pyrrol-1-yl)phenyl]acetamide], 0.5 to 5 µM; with `COc1cc(CN(C(=O)Cc2ccc(C3(C)CC3)cc2F)C2C=CS(=O)(=O)C2)ccn1` (centres unmarked) [I-97, N-(1,1-dioxo-2,3-dihydro-1lambda6-thiophen-3-yl)-2-[2-fluoro-4-(1-methylcyclopropyl)phenyl]-N-[(2-methoxypyridin-4-yl)methyl]acetamide], 0.5 to 5 µM.

As for `CC(C)(O)c1cc(CN(C(=O)C2CNc3cc(-c4ccc(F)cc4)ccc32)C2C=CS(=O)(=O)C2)ccn1` (centres unmarked) [I-98, N-(1,1-dioxo-2,3-dihydro-1lambda6-thiophen-3-yl)-6-(4-fluorophenyl)-N-{[2-(2-hydroxypropan-2-yl)pyridin-4-yl]methyl}-2,3-dihydro-1H-indole-3-carboxamide], the IC50 was in the range of 0.5 to 5 µM. With `CN(C)c1cc(CN(C(=O)Cc2ccc(-c3ccc(F)c(F)c3)cc2F)C2C=CS(=O)(=O)C2)ccn1` (centres unmarked) [I-99, N-{[2-(dimethylamino)pyridin-4-yl]methyl}-N-(1,1-dioxo-2,3-dihydro-1lambda6-thiophen-3-yl)-2-{3,3′,4′-trifluoro-[1,1′-biphenyl]-4-yl}acetamide] the figure was 0.5 to 5 µM. The result for `Cc1cccn1-c1ccc(CC(=O)N(Cc2ccc(Br)cc2)C2C=CS(=O)(=O)C2)c(F)c1` (centres unmarked) [I-100, N-[(4-bromophenyl)methyl]-N-(1,1-dioxo-2,3-dihydro-1lambda6-thiophen-3-yl)-2-[2-fluoro-4-(2-methyl-1H-pyrrol-1-yl)phenyl]acetamide] reads 0.5 to 5 µM; that for `CC(C)(O)c1cc(CN(C(=O)Cc2ccc(-c3ccc(F)cc3)cc2Cl)C2C=CS(=O)(=O)C2)ccn1` (centres unmarked) [I-101, 2-{3-chloro-4′-fluoro-[1,1′-biphenyl]-4-yl}-N-(1,1-dioxo-2,3-dihydro-1lambda6-thiophen-3-yl)-N-{[2-(2-hydroxypropan-2-yl)pyridin-4-yl]methyl}acetamide], 0.5 to 5 µM; that for `COc1ccc2sc(CN(C(=O)Cc3ccc(-n4cccc4)cc3)C3C=CS(=O)(=O)C3)nc2c1` (centres unmarked) [I-102, N-(1,1-dioxo-2,3-dihydro-1lambda6-thiophen-3-yl)-N-[(5-methoxy-1,3-benzothiazol-2-yl)methyl]-2-[4-(1H-pyrrol-1-yl)phenyl]acetamide], 0.5 to 5 µM. As to `Cc1cccn1-c1ccc(CC(=O)N(Cc2ccnc3c2CCC3O)C2C=CS(=O)(=O)C2)c(F)c1` (centres unmarked) [I-103, N-(1,1-dioxido-2,3-dihydrothiophen-3-yl)-2-(2-fluoro-4-(2-methyl-1H-pyrrol-1-yl)phenyl)-N-((7-hydroxy-6,7-dihydro-5H-cyclopenta[b]pyridin-4-yl)methyl)acetamide], the IC50 lay within 0.5 to 5 µM.

For `CN(C)C(=O)C(C(=O)N(Cc1ccncc1)C1C=CS(=O)(=O)C1)c1ccc(-c2ccc(F)cc2)cc1` (centres unmarked) [I-104, N′-(1,1-dioxo-2,3-dihydro-1lambda6-thiophen-3-yl)-2-{4′-fluoro-[1,1′-biphenyl]-4-yl}-N,N-dimethyl-N′-[(pyridin-4-yl)methyl]propanediamide], the IC50 fell in the range of 0.5 to 5 µM. The result for `COc1cc(CN(C(=O)Cc2ccc(C(F)(F)F)cc2)C2C=CS(=O)(=O)C2)ccn1` (centres unmarked) [I-105, N-(1,1-dioxo-2,3-dihydro-1lambda6-thiophen-3-yl)-N-[(2-methoxypyridin-4-yl)methyl]-2-[4-(trifluoromethyl)phenyl]acetamide] reads 0.5 to 5 µM. Consider `CC(C(=O)N(Cc1ccnc(C(C)(C)O)c1)[C@@H]1C=CS(=O)(=O)C1)n1cc(-c2ccc(F)cc2)cn1` (stereo partly drawn) [I-106, N-[(3R)-1,1-dioxo-2,3-dihydro-1lambda6-thiophen-3-yl]-2-[4-(4-fluorophenyl)-1H-pyrazol-1-yl]-N-{[2-(2-hydroxypropan-2-yl)pyridin-4-yl]methyl}propanamide], for which the IC50 was 0.5 to 5 µM.
